The source of these data is ChEMBL document CHEMBL4229332, “Novel multi-target azinesulfonamides of cyclic amine derivatives as potential antipsychotics with pro-social and pro-cognitive effects” (Eur J Med Chem, 2018).

Molecules are shown by their SMILES.

The target of data set [1] is Sodium-dependent serotonin transporter (Homo sapiens, UniProt P31645). Nature of the data set: Displacement of [3H]-imipramine from human SERT expressed in CHO cells at 10^-6 M after 60 mins by scintillation counting method relative to control. Type of data set: cell-based. (In general: Loss of bound radioactivity is the signal in a displacement assay; it reports binding, not function.)

Data set [2] concerns the target D(2) dopamine receptor (Homo sapiens) (UniProt P14416). Briefly: Antagonist activity at human D2LR expressed in CHO-K1 cells assessed as inhibition of dopamine-induced cAMP accumulation by chemiluminescence-based assay. The class given is functional, cell-based. Background: Cyclic AMP is a second messenger, typically raised through Gs and lowered through Gi signalling.

Data set [3] has as its target T1, Alpha-1A adrenergic receptor (Homo sapiens) (UniProt P35348).
T1 sequence (whole entry): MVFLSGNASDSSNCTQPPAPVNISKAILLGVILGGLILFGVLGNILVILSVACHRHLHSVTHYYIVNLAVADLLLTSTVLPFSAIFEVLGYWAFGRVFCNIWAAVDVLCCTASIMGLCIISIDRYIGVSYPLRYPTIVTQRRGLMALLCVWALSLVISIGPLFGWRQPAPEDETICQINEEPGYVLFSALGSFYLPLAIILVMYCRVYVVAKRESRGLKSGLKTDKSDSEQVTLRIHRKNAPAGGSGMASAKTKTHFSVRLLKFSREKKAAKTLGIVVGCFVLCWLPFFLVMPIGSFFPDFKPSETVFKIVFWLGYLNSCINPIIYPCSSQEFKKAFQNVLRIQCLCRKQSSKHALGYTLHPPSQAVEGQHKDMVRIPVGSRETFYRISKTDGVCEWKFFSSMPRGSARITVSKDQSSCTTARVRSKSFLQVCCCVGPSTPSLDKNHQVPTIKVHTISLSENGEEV
Nature of the data set: Antagonist activity at human adrenergic alpha1A receptor expressed in CHO cells assessed as inhibition of epinephrine-induced calcium flux by fluorimetric method. Type of data set: functional, cell-based. (In general: A change in cytosolic calcium serves as a functional read-out for many receptors and channels.)

Data set [4] concerns the target T2, 5-hydroxytryptamine receptor 2A (Homo sapiens, UniProt P28223). Nature of the data set: Antagonist activity at human 5-HT2AR expressed in HEK293 cells assessed as inhibition of serotonin-induced IP1 accumulation after 60 mins by HTRF method. Type of data set: functional, cell-based.
The target of data set [5] is 5-hydroxytryptamine receptor 1B (Rattus norvegicus) (UniProt P28564). Nature of the data set: Displacement of [125I]-CYP from 5-HT1BR in rat cerebral cortex at 10^-6 M after 120 mins by scintillation counting analysis relative to control.
Data set [6] deals with T3, 5-hydroxytryptamine receptor 1A (Homo sapiens) (UniProt P08908).
T3 sequence (whole entry): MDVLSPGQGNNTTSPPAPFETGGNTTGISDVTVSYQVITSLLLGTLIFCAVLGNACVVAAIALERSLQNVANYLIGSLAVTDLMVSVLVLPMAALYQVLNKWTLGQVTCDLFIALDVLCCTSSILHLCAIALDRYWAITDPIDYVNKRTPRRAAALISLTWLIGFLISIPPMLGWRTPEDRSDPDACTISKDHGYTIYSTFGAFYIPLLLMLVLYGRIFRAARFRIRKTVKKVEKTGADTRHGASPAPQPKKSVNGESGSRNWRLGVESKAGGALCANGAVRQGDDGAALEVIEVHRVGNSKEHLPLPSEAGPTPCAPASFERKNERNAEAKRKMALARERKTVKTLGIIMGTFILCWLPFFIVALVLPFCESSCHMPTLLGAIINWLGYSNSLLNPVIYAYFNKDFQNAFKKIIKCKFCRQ
Briefly: Displacement of [3H]-WAY100635 from recombinant full-length human 5-HT1AR expressed in CHO cells at 10^-6 M after 120 mins by scintillation counting method relative to control. Type of data set: cell-based.

The nature of data set [7]: Tmax in Wistar rat brain at 9 mg/kg per os administered as a single dose by LC-MS/MS analysis. The class given is ADME, organism-based. The conditions noted are these: po.
In data set [8] the target is T1, Alpha-1A adrenergic receptor (Homo sapiens). Nature of the data set: Displacement of [3H]-prazosin from human adrenergic alpha1A receptor expressed in CHO cells at 10^-6 M after 60 mins by scintillation counting method relative to control. The class given is cell-based.
The nature of data set [9]: Tmax in Wistar rat plasma at 9 mg/kg per os administered as a single dose by LC-MS/MS analysis. The settings on record: po. The class given is ADME, organism-based.
Data set [10] addresses D(3) dopamine receptor (Homo sapiens) (UniProt P35462). Nature of the data set: Antagonist activity at human D3R expressed in CHO-K1 cells assessed as inhibition of […] cAMP accumulation by chemiluminescence-based assay. Type of data set: functional, cell-based.
A further data set relates to Rattus norvegicus. Briefly: Toxicity in Sprague-Dawley rat assessed as induction of catalepsy at 30 mg/kg, ip measured every 30 mins up to 240 mins by bar test. The conditions noted are these: in vivo. The class given is organism-based.
Data set [11] concerns the target T3, 5-hydroxytryptamine receptor 1A (Homo sapiens). Nature of the data set: Antagonist activity at human 5-HT1AR expressed in CHO-K1 cells assessed as inhibition of serotonin-induced cAMP accumulation at 10^-6 M by chemiluminescence-based assay. Type of data set: functional, cell-based.
For data set [12], the target named is T2, 5-hydroxytryptamine receptor 2A. Nature of the data set: Antagonist activity at human 5-HT2AR expressed in HEK293 cells assessed as inhibition of serotonin-induced IP1 accumulation at 10^-6 M by chemiluminescence-based assay. The class given is functional, cell-based.
For data set [13], the target named is T3, 5-hydroxytryptamine receptor 1A (Homo sapiens). Briefly: Partial agonist activity at human 5-HT1AR expressed in CHO-K1 cells assessed as increase in calcium flux by fluorimetric method. Type of data set: functional, cell-based.
The target in data set [14] is T2, 5-hydroxytryptamine receptor 2A. Nature of the data set: Displacement of [3H]ketanserin from human recombinant 5-HT2A receptor after 60 mins by scintillation counting analysis.
The target of data set [15] is T4, 5-hydroxytryptamine receptor 1A (Homo sapiens, UniProt P08908).
T4 sequence (P08908 whole entry): T3 sequence (whole entry)
Briefly: Displacement of [3H]-WAY100635 from recombinant full-length human 5-HT1AR expressed in CHO cells after 120 mins by scintillation counting method. Type of data set: cell-based.

Data set [16] has as its target Muscarinic acetylcholine receptor M1 (Homo sapiens) (UniProt P11229). Briefly: Displacement of [3H]-pirenzepine from human muscarinic acetylcholine M1 receptor expressed in CHO cells at 10^-6 M after 60 mins by scintillation counting method relative to control. The class given is cell-based.
The test system of the next data set is Cavia porcellus. Nature of the data set: Cardiotoxicity in guinea pig assessed as QT prolongation at 10 mg/kg, ip. The conditions noted are these: in vivo. Type of data set: toxicity, organism-based.

T2 sequence (P28223 whole entry): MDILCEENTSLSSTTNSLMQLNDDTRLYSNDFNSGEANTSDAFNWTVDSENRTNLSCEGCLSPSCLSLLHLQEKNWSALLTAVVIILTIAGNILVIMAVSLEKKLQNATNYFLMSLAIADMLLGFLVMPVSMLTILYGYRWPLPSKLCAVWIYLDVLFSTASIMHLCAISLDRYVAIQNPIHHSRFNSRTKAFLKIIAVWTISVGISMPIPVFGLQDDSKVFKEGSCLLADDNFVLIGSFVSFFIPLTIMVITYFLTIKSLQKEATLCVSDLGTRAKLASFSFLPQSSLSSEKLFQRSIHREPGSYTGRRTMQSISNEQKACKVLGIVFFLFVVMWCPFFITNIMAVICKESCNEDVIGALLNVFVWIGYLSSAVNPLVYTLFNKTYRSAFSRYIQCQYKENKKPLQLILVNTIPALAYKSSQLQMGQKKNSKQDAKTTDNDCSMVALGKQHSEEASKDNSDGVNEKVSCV
Chain of D(2) dopamine receptor (Homo sapiens) (P14416 whole entry): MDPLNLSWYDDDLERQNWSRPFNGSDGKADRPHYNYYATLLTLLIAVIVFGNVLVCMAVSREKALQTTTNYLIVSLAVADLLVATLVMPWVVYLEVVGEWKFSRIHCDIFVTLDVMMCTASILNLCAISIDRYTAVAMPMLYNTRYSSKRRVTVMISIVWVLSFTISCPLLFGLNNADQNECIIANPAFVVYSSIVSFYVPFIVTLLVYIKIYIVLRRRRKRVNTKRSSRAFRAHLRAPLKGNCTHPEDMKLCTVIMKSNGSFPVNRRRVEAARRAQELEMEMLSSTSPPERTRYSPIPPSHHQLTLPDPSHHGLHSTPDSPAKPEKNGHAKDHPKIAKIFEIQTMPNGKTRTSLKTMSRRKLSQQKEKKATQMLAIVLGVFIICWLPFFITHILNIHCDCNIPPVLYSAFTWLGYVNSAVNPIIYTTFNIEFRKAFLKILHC
Chain of Muscarinic acetylcholine receptor M1 (Homo sapiens) (P11229 whole entry): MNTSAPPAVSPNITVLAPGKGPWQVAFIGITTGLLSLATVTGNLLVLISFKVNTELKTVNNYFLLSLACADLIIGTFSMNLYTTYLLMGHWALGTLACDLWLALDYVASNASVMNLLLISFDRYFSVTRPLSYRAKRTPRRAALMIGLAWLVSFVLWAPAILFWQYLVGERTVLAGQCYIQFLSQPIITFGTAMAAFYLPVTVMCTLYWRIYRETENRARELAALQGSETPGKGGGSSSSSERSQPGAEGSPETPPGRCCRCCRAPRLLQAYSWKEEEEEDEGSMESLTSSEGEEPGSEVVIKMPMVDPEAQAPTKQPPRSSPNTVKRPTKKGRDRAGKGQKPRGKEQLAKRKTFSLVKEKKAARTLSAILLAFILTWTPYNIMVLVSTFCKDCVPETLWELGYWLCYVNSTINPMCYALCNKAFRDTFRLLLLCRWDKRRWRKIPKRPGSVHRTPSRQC
Chain of Sodium-dependent serotonin transporter (P31645 whole entry, looked up): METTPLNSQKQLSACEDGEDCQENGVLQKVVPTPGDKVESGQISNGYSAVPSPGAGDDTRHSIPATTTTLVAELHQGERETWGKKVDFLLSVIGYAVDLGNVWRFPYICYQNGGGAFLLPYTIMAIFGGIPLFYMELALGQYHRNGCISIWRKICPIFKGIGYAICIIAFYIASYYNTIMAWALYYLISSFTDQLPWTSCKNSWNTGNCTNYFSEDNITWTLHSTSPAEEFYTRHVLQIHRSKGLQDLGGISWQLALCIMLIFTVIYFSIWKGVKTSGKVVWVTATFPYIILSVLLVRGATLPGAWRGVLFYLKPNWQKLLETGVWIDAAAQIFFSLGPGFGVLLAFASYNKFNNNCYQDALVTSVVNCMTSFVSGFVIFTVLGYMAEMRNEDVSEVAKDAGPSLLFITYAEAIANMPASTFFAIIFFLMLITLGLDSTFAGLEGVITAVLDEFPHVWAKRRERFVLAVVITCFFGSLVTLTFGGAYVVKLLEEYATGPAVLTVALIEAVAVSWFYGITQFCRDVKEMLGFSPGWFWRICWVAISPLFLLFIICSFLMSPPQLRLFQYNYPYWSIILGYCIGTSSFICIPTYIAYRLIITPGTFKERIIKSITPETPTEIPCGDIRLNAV
Chain of D(3) dopamine receptor (Homo sapiens) (P35462 whole entry): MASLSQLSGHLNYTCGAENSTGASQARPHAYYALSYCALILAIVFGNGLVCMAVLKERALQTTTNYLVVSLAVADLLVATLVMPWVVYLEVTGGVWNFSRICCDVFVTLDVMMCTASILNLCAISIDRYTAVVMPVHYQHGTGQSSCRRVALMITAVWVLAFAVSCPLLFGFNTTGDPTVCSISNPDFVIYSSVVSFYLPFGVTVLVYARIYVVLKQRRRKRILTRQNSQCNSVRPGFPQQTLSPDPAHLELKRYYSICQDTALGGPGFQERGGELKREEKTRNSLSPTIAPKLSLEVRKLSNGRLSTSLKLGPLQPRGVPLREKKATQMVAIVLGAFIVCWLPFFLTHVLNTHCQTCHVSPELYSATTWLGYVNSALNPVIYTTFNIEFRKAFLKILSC
Chain of 5-hydroxytryptamine receptor 1B (Rattus norvegicus) (P28564 whole entry): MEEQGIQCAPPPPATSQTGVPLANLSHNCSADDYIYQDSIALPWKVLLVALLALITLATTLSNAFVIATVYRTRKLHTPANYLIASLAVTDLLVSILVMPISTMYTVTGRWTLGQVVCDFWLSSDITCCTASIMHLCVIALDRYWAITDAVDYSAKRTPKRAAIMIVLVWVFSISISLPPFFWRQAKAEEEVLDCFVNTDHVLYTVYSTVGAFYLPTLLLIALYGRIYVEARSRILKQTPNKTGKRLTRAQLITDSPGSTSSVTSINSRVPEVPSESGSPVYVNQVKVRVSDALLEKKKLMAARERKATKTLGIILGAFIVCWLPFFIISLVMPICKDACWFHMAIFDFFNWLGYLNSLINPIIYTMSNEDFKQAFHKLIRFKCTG

In the case of `O=S(=O)(c1cncc2ccccc12)N1CCC[C@H]1CCN1CCN(c2cccc3sccc23)CC1`, the inhibition – broadly, the drop in the measured response relative to a control, in per cent – amounted to 84% in data set [1]; 84% in [5]; 100% in data set [6]; 94% in [8]; 32.5% in data set [11]; 100% in data set [12]. The compound also came in with an inhibition in data set [16] of 6%. The Kb in data set [2] was 3 nM; in [3] it was 13 nM; in data set [4], 2.3 nM; in data set [10] it was 92 nM; in data set [13] it was 28.3 nM. Moreover, the Tmax (commonly the time from dosing to the highest level) in data set [7] is 1 h; in [9], 10 min. Moreover, in the data set on Rattus norvegicus, the Activity result is on record as “Non-Toxic”. For the same compound, the values for the Ki in data set [14] and in [15] were 9 nM and 18 nM, respectively.
For the compound `O=S(=O)(c1cncc2ccccc12)N1CCC[C@H]1CCN1CCN(c2nsc3ccccc23)CC1`, the Activity result in the data set on Cavia porcellus was “Non-Toxic”.
